Laboratory results: PubChem BioAssay AID248 (DTP/NCI, 2004)
“And” between values parts separate entries of the source, which are not always exact repeats. Equal values may be shown once. Inconclusive results and toxic doses are left out. Cut-off read from the data, not from the text of the source: active = T/C of 150% or more; inactive = T/C below 125%.

System: L1210 leukemia ip in BDF1 mice, survival T/C
Experiment: NCI In Vivo Anticancer Drug Screen. Data for tumor model L1210 Leukemia (intraperitoneal) in B6D2F1 (BDF1) mice
Conditions: endpoint: mean survival time, higher = longer survival
How it was run: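 Antitumor effect is assessed in tumor-bearing animals. Survival in the compound arm is compared with a vehicle-dosed control arm and expressed as their quotient.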

[1] = dose: 100.0 mg/kg/injection, schedule: Q01DX009 (ip), vehicle: Klucel (hydroxypropylcellulose) (HPC)
[2] = dose: 200.0 mg/kg/injection, schedule: Q01DX009 (ip), vehicle: Klucel (hydroxypropylcellulose) (HPC)
[3] = dose: 100.0 mg/kg/injection, schedule: Q04DX003 (ip), vehicle: saline with Tween-80
[4] = dose: 200.0 mg/kg/injection, schedule: Q04DX003 (ip), vehicle: saline with Tween-80
[5] = dose: 50.0 mg/kg/injection, schedule: Q01DX009 (ip), vehicle: saline
[6] = dose: 100.0 mg/kg/injection, schedule: Q01DX009 (ip), vehicle: saline
[7] = dose: 100.0 mg/kg/injection, schedule: Q04DX003 (ip), vehicle: saline
[8] = dose: 200.0 mg/kg/injection, schedule: Q04DX003 (ip), vehicle: saline
[9] = dose: 50.0 mg/kg/injection, schedule: Q01DX001 (ip), vehicle: carboxymethylcellulose (CMC)
[10] = dose: 100.0 mg/kg/injection, schedule: Q01DX001 (ip), vehicle: carboxymethylcellulose (CMC)
[11] = dose: 200.0 mg/kg/injection, schedule: Q01DX001 (ip), vehicle: carboxymethylcellulose (CMC)
[12] = dose: 400.0 mg/kg/injection, schedule: Q01DX001 (ip), vehicle: carboxymethylcellulose (CMC)
[13] = dose: 200.0 mg/kg/injection, schedule: Q01DX009 (ip), vehicle: saline

Measured: T/C

CC(=O)Oc1ccc2c3c(c(=O)oc2c1)C(C)(C)c1c(c(=O)oc2cc(OC(C)=O)ccc12)C3(C)C
inactive: dose: 100.0 mg/kg/injection, schedule: Q01DX009 (ip), vehicle: saline sonified 97 % of control | dose: 100.0 mg/kg/injection, schedule: Q04DX003 (ip), vehicle: saline sonified 102 % of control | dose: 200.0 mg/kg/injection, schedule: Q01DX009 (ip), vehicle: saline sonified 98 % of control | dose: 200.0 mg/kg/injection, schedule: Q04DX003 (ip), vehicle: saline sonified 97 % of control | dose: 400.0 mg/kg/injection, schedule: Q01DX009 (ip), vehicle: saline sonified 98 % of control | dose: 400.0 mg/kg/injection, schedule: Q04DX003 (ip), vehicle: saline sonified 105 % of control

O=C(O)/C(=C\c1ccc(Cl)cc1)c1ccc(Cl)cc1
inactive: [1] 104 % of control | dose: 100.0 mg/kg/injection, schedule: Q04DX003 (ip), vehicle: Klucel (hydroxypropylcellulose) (HPC) 95 % of control | [2] 89 % of control | dose: 200.0 mg/kg/injection, schedule: Q04DX003 (ip), vehicle: Klucel (hydroxypropylcellulose) (HPC) 91 % of control | dose: 400.0 mg/kg/injection, schedule: Q04DX003 (ip), vehicle: Klucel (hydroxypropylcellulose) (HPC) 95 % of control

CC[N+]1(C)CC2C3CCC(C)(O3)C2C1 (stereo not given)
inactive: dose: 44.0 mg/kg/injection, schedule: Q01DX Z (ip), vehicle: methylcellulose (MC) 104 % of control | dose: 66.0 mg/kg/injection, schedule: Q01DX Z (ip), vehicle: methylcellulose (MC) 98 % of control | dose: 100.0 mg/kg/injection, schedule: Q01DX Z (ip), vehicle: methylcellulose (MC) 104 % of control

CCOc1ccc(OCC)cc1
inactive: [3] 101 % of control | [4] 101 % of control | dose: 400.0 mg/kg/injection, schedule: Q04DX003 (ip), vehicle: saline with Tween-80 94 % of control

CC(=O)N1CC=C2c3c1ccc(C)c3C(=O)C2C(N)=O (stereo not given)
inactive: dose: 100.0 mg/kg/injection, schedule: Q01DX001 (ip), vehicle: saline 97 % of control | dose: 200.0 mg/kg/injection, schedule: Q01DX001 (ip), vehicle: saline 94 % of control | dose: 400.0 mg/kg/injection, schedule: Q01DX001 (ip), vehicle: saline 94 % of control

CCNCCNC
inactive: [5] 96 % of control | [6] 101 % of control | [7] 108 % of control | [8] 101 % of control

COc1c(C(=O)Nc2ccc(C3=NCCN3)cc2)cccc1C(=O)Nc1ccc(C2=NCCN2)cc1
inactive: dose: 15.0 mg/kg/injection, schedule: Q01DX Z (ip), vehicle: saline 95 % of control | dose: 30.0 mg/kg/injection, schedule: Q01DX Z (ip), vehicle: saline 101 % of control

CC(CN=Cc1ccc(N(CCCl)CCCl)cc1)N=Cc1ccc(N(CCCl)CCCl)cc1 (stereo not given)
inactive: [9] 109 % of control | [10] 111 % of control | [11] 109 % of control | [12] 111 % of control

CCOC(=O)C(CCc1ccccn1)C(C)=O (stereo not given)
inactive: [6] 97 % of control | [13] 107 % of control | dose: 400.0 mg/kg/injection, schedule: Q01DX009 (ip), vehicle: saline 102 % of control

O=S1(=O)Oc2c(Cl)cc(Cl)cc2S(=O)(=O)Oc2c(Cl)cc(Cl)cc21
inactive: dose: 100.0 mg/kg/injection, schedule: Q01DX001 (ip), vehicle: Klucel (hydroxypropylcellulose) (HPC) 105 % of control | dose: 200.0 mg/kg/injection, schedule: Q01DX001 (ip), vehicle: Klucel (hydroxypropylcellulose) (HPC) 105 % of control | dose: 400.0 mg/kg/injection, schedule: Q01DX001 (ip), vehicle: Klucel (hydroxypropylcellulose) (HPC) 98 % of control

O=C(Nc1ccc(C(=O)O)c(O)c1)Nc1ccccc1C(F)(F)F
inactive: [9] 92 % of control | dose: 50.0 mg/kg/injection, schedule: Q01DX009 (ip), vehicle: carboxymethylcellulose (CMC) 100 % of control and 106 % of control | dose: 50.0 mg/kg/injection, schedule: Q04DX003 (ip), vehicle: carboxymethylcellulose (CMC) 93 % of control | [10] 101 % of control | dose: 100.0 mg/kg/injection, schedule: Q01DX009 (ip), vehicle: carboxymethylcellulose (CMC) 105 % of control and 92 % of control | dose: 100.0 mg/kg/injection, schedule: Q04DX002 (ip), vehicle: carboxymethylcellulose (CMC) 94 % of control and 97 % of control | dose: 100.0 mg/kg/injection, schedule: Q04DX003 (ip), vehicle: carboxymethylcellulose (CMC) 88 % of control | [11] 97 % of control | dose: 200.0 mg/kg/injection, schedule: Q01DX009 (ip), vehicle: carboxymethylcellulose (CMC) 91 % of control and 92 % of control | dose: 200.0 mg/kg/injection, schedule: Q04DX002 (ip), vehicle: carboxymethylcellulose (CMC) 101 % of control and 108 % of control | dose: 200.0 mg/kg/injection, schedule: Q04DX003 (ip), vehicle: carboxymethylcellulose (CMC) 89 % of control | dose: 400.0 mg/kg/injection, schedule: Q04DX002 (ip), vehicle: carboxymethylcellulose (CMC) 103 % of control

Nc1ccc(N2CCNCC2)cc1
inactive: [5] 101 % of control | [6] 107 % of control | [13] 111 % of control

CN(C)C=NCCOCc1ccccc1
inactive: [7] 98 % of control | [8] 93 % of control

Oc1c(Cl)cc(Cl)cc1/C=N/Nc1nnc(N/N=C/c2cc(Cl)cc(Cl)c2O)c2ccccc12
inactive: dose: 50.0 mg/kg/injection, schedule: Q01DX001 (ip), vehicle: other 111 % of control | dose: 100.0 mg/kg/injection, schedule: Q01DX001 (ip), vehicle: other 101 % of control | dose: 200.0 mg/kg/injection, schedule: Q01DX001 (ip), vehicle: other 102 % of control | dose: 400.0 mg/kg/injection, schedule: Q01DX001 (ip), vehicle: other 102 % of control

CC(C)(C)N(Cc1ccccc1)C(=O)Nc1ccccc1
inactive: [1] 97 % of control | [2] 110 % of control | dose: 400.0 mg/kg/injection, schedule: Q01DX009 (ip), vehicle: Klucel (hydroxypropylcellulose) (HPC) 103 % of control

Cc1[nH]c(=O)ncc1CCOCc1ccccc1
inactive: [10] 104 % of control | [11] 109 % of control | [12] 104 % of control

COC(=O)c1ccccc1NC(=O)CCl
inactive: [3] 99 % of control | [4] 91 % of control

Cc1cc(C)n2[nH]c(=O)cc2n1
inactive: dose: 100.0 mg/kg/injection, schedule: Q04DX002 (ip), vehicle: saline with Tween-80 98 % of control | dose: 200.0 mg/kg/injection, schedule: Q04DX002 (ip), vehicle: saline with Tween-80 104 % of control | dose: 400.0 mg/kg/injection, schedule: Q04DX002 (ip), vehicle: saline with Tween-80 106 % of control

CN1CCC=C(COC(=O)C(C)(C)C)C1
inactive: dose: 75.0 mg/kg/injection, schedule: Q01DX001 (ip), vehicle: carboxymethylcellulose (CMC) 92 % of control | dose: 150.0 mg/kg/injection, schedule: Q01DX001 (ip), vehicle: carboxymethylcellulose (CMC) 87 % of control | dose: 300.0 mg/kg/injection, schedule: Q01DX001 (ip), vehicle: carboxymethylcellulose (CMC) 95 % of control

CC[Si](C)(C)c1ccc(CCN2CC2)s1
inactive: [10] 113 % of control

CCN(CC)CCn1ccnc1C
inactive: dose: 50.0 mg/kg/injection, schedule: Q01DX005 (ip), vehicle: saline 109 % of control | dose: 100.0 mg/kg/injection, schedule: Q01DX005 (ip), vehicle: saline 104 % of control | dose: 200.0 mg/kg/injection, schedule: Q01DX005 (ip), vehicle: saline 104 % of control
